Results published in publication PMC11091117, “A fluorescently-tagged tick kinin neuropeptide triggers peristalsis and labels tick midgut muscles” (Scientific Reports, 2024).
“Also recorded” adds a separate entry of the source.

Tests used:
[1] = system: tick kinin receptor (recombinant R. microplus receptor, CHO-K1 BMLK3 cells); test: Confocal visualization of recombinant kinin receptor on live BMLK3 cells with fluorescently labeled kinin peptide; assay type: binding, Rhipicephalus microplus
Description: (§1) Three peptides were used in this study. These included: 1) the ligand for the endogenous tick kinin receptor from Rhipicephalus sanguineus, Rhisa-kinin 8 peptide of sequence GTGEDQAFSPWGamide (Rhisa-K-8; RK8; of identical sequence to Rhimi-K-8 in Rhipicephalus microplus)[48], 2) the same peptide but fluorescently labeled at the N-terminus with tetramethylrhodamine (TMR) a red fluorescent dye, designated TMR-Rhisa-K-8 (TMR-RK8), and 3) a labeled peptide synthesized with the scrambled sequence of the kinin ligand, designated TMR-Scrambled. The sequence of TMR-RK8 was TMR-C-GTGEDQAFSPWGamide). The TMR-Scrambled kinin (TMR-C-GTQWGPGFEADSamide) served as a negative control for tissue labeling. […]
(§2) The BMLK3 and V/O cells (5000–10,000 cells) were seeded separately in 200 µL selective media onto the two chambers of the cover glass (Lab-Tek Chambered Coverglass, 4.2 cm^2 area, #1.0 German borosilicate glass, sterile, Cat # 155,380, Thermo Fisher Scientific Inc., Walthams, MA) and grown in the incubator overnight at 37 °C and 5% CO2. The next day, cells would be ready for fluorescent labeling: the selective media was replaced with 200 µL HBSS to rinse the cells. […] Images were analyzed and computer-colored using Fiji/ImageJ (National Institutes of Health, Bethesda, MD). […]

[2] = system: vector-only (V/O) CHO-K1 cells; test: Confocal visualization on live vector-only cells with fluorescently labeled kinin peptide; assay type: binding; settings: 10 µM labeled peptide, 1 min, HBSS, confocal Leica SP8
Description: as §1, §2

[3] = system: vector-only (V/O) CHO-K1 cells; test: Fluorescence microscopy validation of labeled peptide specificity on live vector-only cells; assay type: binding; settings: 1 µM TMR-RK8, 5 min at room temperature, HBSS; Zeiss Axio Observer, BPTmX channel
Description: BMLK3 and vector-only cells were cultured in selective media (F-12K medium containing 10% fetal bovine serum and 800 µg/mL-1 of G418 sulfate), cells were seeded in […] (CELLSTAR®, Greiner Bio-One®, Monroe, NC USA) at 20,000 cells per well and were incubated overnight. The next assay, the cell culture medium was removed, and cells were rinsed twice with 200 µl DPBS, and 180 µl of HBSS buffer was added into each well. The peptide stock solutions were prepared in 1% DMSO in HBSS at 100 µM. TMR-RK8 (20 µl) was added into each well and incubated with the cells for 5 min at room temperature. The medium was then removed with a pipette and the cells were rinsed twice with 200 µl HBSS, and DAPI (VECTASHIELD® H-1200, Vector Laboratories) was added (20 µl of 0.15 µg/ml) for visualizing the cell nuclei. Cells were rinsed twice with 200 µl of HBSS, and finally 180 µl HBSS per well was added.
The cells were immediately imaged under a Zeiss Axio Observer® inverted fluorescence microscope. The exposure time for the Bodipy-Tetramethylrhodamine-X (BPTmX) fluorescence channel was the same for BMLK3 cells and V/O cells. DAPI imaging was done subsequently using the same focal height as the BPTmx channel.

TMR-C-GTGEDQAFSPWGamide [TMR-RK8]
labeling of BMLK3 cells, Fig. S2 (in words) ([1]; 1 µM TMR-RK8, confocal Leica SP8 with DIC, 1.1 µm Z-step, 13 slices): observed in most cells | labeling of BMLK3 cells (in words) ([1]; live BMLK3 cells, 10 µM labeled peptide, 1 min, HBSS, confocal Leica SP8, Ex 542 nm, Em 572–759 nm): showed specific labeling; also recorded: observed only in BMLK3 cells | labeling of vector-only cells (in words) [2]: not labeled by either peptide | labeling of vector-only cells, Fig. S1 (in words) [3]: only observed in the BLMK3 cells
